Tests used:
[1] = system: retinoic acid response element (RARE); test: X-Gal RA based reporter assay (genomic activity); assay type: cell-based; details: for Genomic Activity (X-Gal RA Based Reporter Assay) Efficacy (Emax) / EC50: Sil-15 reporter cells, overnight incubation; for EC50: read-out: Genomic Activity (X-Gal RA Based Reporter Assay) Potency (EC50); for Genomic activity and potency compared to retinoic acid (ATRA): X-Gal assay, versus ATRA
Description: The genomic activity of synthetic retinoids was evaluated by determining their efficiency of inducing transcription using the X-Gal Assay. The X-Gal Assay utilizes Sil-15 reporter cells in which the transcription of the LacZ gene is under control of a promoter linked to a retinoic acid response element (RARE). After treatment of the reporter cells with retinoids, the ability of the compounds to induce transcription can be attained by monitoring and quantifying the activity of β-galactosidase produced by the reporter cells.
Sil-15 cells were plated at 100,000 cells per well in 96-well plates coated in 0.1% gelatin. The following day, serial dilutions of retinoid ligands, prepared in Dulbecco's Modified Eagle's Medium (DMEM) containing 10% foetal calf serum (FCS) were added at concentrations from 10^−6 M to 10^−14 M and the plates were incubated overnight. All concentrations for the ATRA standard curve and the other retinoid ligands were tested in triplicate.
The next day, the assay plates were washed twice with phosphate buffered saline (PBS), fixed with 100 μl per well of 1% glutaraldehyde and 1 mM MgCl2 in PBS for 15 minutes and washed twice with PBS. β-galactosidase activity was detected by the addition of 100 μl of freshly-prepared 0.2% X-Gal in 1 mM MgCl2, 3.3 mM potassium ferricyanide and 3.3 mM potassium ferrocyanide in PBS per well. Plates were incubated for 6 hours at 37° C. in 5% CO2 and colour change was detected by reading the plates at 650 nm on an Emax Precision Microplate Reader (Molecular Devices).

MDR1 = test: MDCK-MDR1 permeability assay; assay type: in vitro ADME; details: dog, pH 7.4, 60 min
Description: Thus, this assay is a valuable in vitro surrogate for blood-brain permeability and CNS exposure
MDCK-MDR1 cells obtained from the NIH (Rockville, MD, USA) are used between passage numbers 6-30. Cells are seeded onto Millipore Multiscreen Transwell plates at 3.4×10^5 cells/cm^2. The cells are cultured in DMEM and media is changed on day 3. On day 4 the permeability study is performed. Cell culture and assay incubations are carried out at 37° C. in an atmosphere of 5% CO2 with a relative humidity of 95%. On the day of the assay, the monolayers are prepared by rinsing both apical and basolateral surfaces twice with Hanks Balanced Salt Solution (HBSS) at the desired pH warmed to 37° C. […] Test compound permeability is assessed in duplicate. […] Test and control compounds are quantified by LC-MS/MS cassette analysis using a 7-point calibration with appropriate dilution of the samples. The starting concentration (C0) is determined from the dosing solution and the experimental recovery calculated from C0 and both apical and basolateral compartment concentrations.
The permeability coefficient (Papp) for each compound is calculated from the following equation: […]
Where dQ/dt is the rate of permeation of the drug across the cells, C0 is the donor compartment concentration at time zero and A is the area of the cell monolayer. […] An efflux ratio (ER) is calculated from mean A-B and B-A data.

SH-SY5Y cells = test: Induction of neurite outgrowth; assay type: cell-based; details: 10 nM, 5 days; for fold induction at 0.01 µM: Homo sapiens, 120 h, read-out: Neurite Outgrowth Fold increase
Description: SY—SY5Y cells were plated at 10,000 cells/well in 12-well plates containing acid-treated/poly-L-lysine-coated coverslips. After 24 hours, each retinoid was added to the medium at a concentration of 10 nM and the plates were incubated for 5 days. After retinoid treatment, SH-SY5Y cells on coverslips were washed twice in PBS, fixed in 4% paraformaldehyde (PFA) for 20 minutes at room temperature, and washed twice with PBS.
For immunocytochemical staining of neurites, cells on coverslips were washed three times in PBS, and incubated in blocking solution (10% donkey serum and 0.1% triton X-100 in PBS) for 1 hour at room temperature. Cells were then labelled by incubation overnight at 4° C. with β-III tubulin primary antibody (Sigma-Aldrich) diluted 1:1000 in blocking buffer. Following incubation overnight, cells were washed three times with PBS containing 0.1% Triton X-100 solution (PBST) before incubation with anti-mouse monoclonal secondary antibody (1:300 in PBST; Jackson Immunoresearch) for 2 hours at room temperature. Finally, after three washes in PBST and a final wash in PBS, the coverslips were mounted on slides and stored at 4° C.
ImageJ software with the NeuronJ plugin was used to quantify neurite outgrowth on stained cells. For each experiment, 10 different randomly selected images were taken from each cover slip using a Nikon Eclipse E400 fluorescence microscope. Each image was converted into an 8-bit image (necessary for the NeuronJ plugin) and optimised with the brightness and contrast tool in GIMP (GNU Image Manipulation Program). For each image, individual traces were drawn for each clearly-identifiable neurite using the tracing tool in the NeuronJ plugin. Neurite length was measured in pixels and transformed into the corresponding length in μm depending on the magnification used. The average neurite length for each image was calculated by dividing total neurite length by the total number of neurites per image. Ten images per cover slip were measured and the mean calculated for the coverslip overall. Coverslips were in triplicate for each retinoid and concentration.

SMILES: CC1(C)CCC(C)(C)c2nc(C#Cc3ccc(C(=O)O)cc3)cnc21 [DC645, 4-[2-(5,5,8,8-Tetramethyl-5,6,7,8-tetrahydroquinoxalin-2-yl)ethynyl]benzoic acid]
- Genomic Activity (X-Gal RA Based Reporter Assay) Efficacy (Emax) [1]: 185.9
- EC50 [1]: 0.0697 nM
- Genomic activity and potency compared to retinoic acid (ATRA) [1]: increased genomic activity and potency
- Papp at 60 min, 10 μM (MDR1): 34.9 ×10⁻⁶ cm/s
- efflux ratio at 60 min, 10 μM (MDR1; from mean A-B and B-A data, read-out: ER (efflux ratio)): 0.6
- Average neurite length compared to cells treated with ATRA (SH-SY5Y cells): significantly larger average neurite length
- fold induction at 0.01 µM (SH-SY5Y cells): 2.3

SMILES: CC1(C)CCC(C)(C)c2cc(C#Cc3ccc(C(=O)O)cc3F)ccc21 [DC526, 3-Fluoro-4-[2-(5,5,8,8-tetramethyl-5,6,7,8-tetrahydronaphthalen-2-yl)ethynyl]benzoic acid]
- Genomic Activity (X-Gal RA Based Reporter Assay) Efficacy (Emax) [1]: 149.1
- EC50 [1]: 0.0581 nM
- Genomic activity and potency compared to retinoic acid (ATRA) [1]: increased genomic activity and potency
- Average neurite length compared to cells treated with ATRA (SH-SY5Y cells): significantly larger average neurite length
- fold induction at 0.01 µM (SH-SY5Y cells): 2.1

SMILES: CC1(C)CCC(C)(C)c2cc(C#Cc3ccc(C(=O)O)nc3)ccc21 [DC528, 5-[2-(5,5,8,8-tetramethyl-5,6,7,8-tetrahydronaphthalen-2-yl)ethynyl]pyridine-2-carboxylic acid]
- Genomic Activity (X-Gal RA Based Reporter Assay) Efficacy (Emax) [1]: 206.5
- EC50 [1]: 0.146 nM
- Genomic activity and potency compared to retinoic acid (ATRA) [1]: increased genomic activity and potency
- Average neurite length compared to cells treated with ATRA (SH-SY5Y cells): significantly larger average neurite length
- fold induction at 0.01 µM (SH-SY5Y cells): 2.2
